Experimental data as given in ChEMBL document CHEMBL1201862, “PubChem BioAssay data set” (2004).
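Where inhibition never reached the appropriate level, the endpoint shown equals the highest concentration tested. Otherwise, values were interpolated linearly from a five-concentration, 48-hour dose response in 96-well plates. At the GI50, growth is halved.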 Active and inactive are the calls of the source. Cut-off read from the data, not from the text of the source: active = GI50 up to about 1.1 µM and inactive = higher.

Tests used:
Test in all cases: growth of human tumour cells (NCI), 48 h
OVCAR-4 = system: OVCAR-4
IGROV-1 = system: IGROV-1
BT-549 = system: BT-549
HT-29 = system: HT-29
RXF 393 = system: RXF 393
OVCAR-3 = system: OVCAR-3
SK-MEL-2 = system: SK-MEL-2
SF-268 = system: SF-268
SK-MEL-5 = system: SK-MEL-5
PC-3 = system: PC-3
NCI-H460 = system: NCI-H460
SF-295 = system: SF-295
A498 = system: A498
M14 = system: M14
OVCAR-5 = system: OVCAR-5
MCF7 = system: MCF7
K562 = system: K562
NCI-H522 = system: NCI-H522
SN12C = system: SN12C
NCI/ADR-RES = system: NCI/ADR-RES
UO-31 = system: UO-31
MOLT-4 = system: MOLT-4
KM12 = system: KM12
EKVX = system: EKVX
SNB-75 = system: SNB-75
A549 = system: A549
Hs-578T = system: Hs-578T
UACC-257 = system: UACC-257
HCT-15 = system: HCT-15
HCC 2998 = system: HCC 2998
786-0 = system: 786-0
MDA-MB-435 = system: MDA-MB-435
ACHN = system: ACHN
TK-10 = system: TK-10
HOP-92 = system: HOP-92
DU-145 = system: DU-145
HL-60 = system: HL-60
SK-OV-3 = system: SK-OV-3
SF-539 = system: SF-539
HOP-62 = system: HOP-62
SNB-19 = system: SNB-19
HCT-116 = system: HCT-116
UACC-62 = system: UACC-62
CCRF-CEM = system: CCRF-CEM
LOX IMVI = system: LOX IMVI
NCI-H226 = system: NCI-H226
CAKI-1 = system: CAKI-1
U-251 = system: U-251
OVCAR-8 = system: OVCAR-8
RPMI-8226 = system: RPMI-8226
COLO 205 = system: COLO 205
Malme-3M = system: Malme-3M
SW-620 = system: SW-620
MDA-N = system: MDA-N
MDA-MB-231 = system: MDA-MB-231
NCI-H23 = system: NCI-H23
T47D = system: T47D
SK-MEL-28 = system: SK-MEL-28
SR = system: SR

Measured: GI50

Cc1nc(-c2ccccc2)c(-c2ccccc2)s1
inactive: OVCAR-4 19.6 µM | IGROV-1 18.6 µM | BT-549 23.9 µM | HT-29 17.9 µM | RXF 393 19.4 µM | OVCAR-3 23.5 µM | SK-MEL-2 16.7 µM | SF-268 25.6 µM | SK-MEL-5 14.4 µM | PC-3 14.2 µM | NCI-H460 19.1 µM | SF-295 24.8 µM | A498 17.6 µM | M14 19.9 µM | OVCAR-5 27.6 µM | MCF7 25.3 µM | K562 18.8 µM | NCI-H522 18.6 µM | SN12C 37.9 µM | NCI/ADR-RES 24.2 µM | UO-31 20.2 µM | MOLT-4 17.6 µM | KM12 20.4 µM | EKVX 22.6 µM | SNB-75 23.4 µM | A549 25.8 µM | Hs-578T 21.8 µM | UACC-257 25.1 µM | HCC 2998 12.7 µM | 786-0 21.4 µM | MDA-MB-435 17.9 µM | ACHN 26.9 µM | TK-10 19.7 µM | HOP-92 20.6 µM | DU-145 32 µM | HL-60 10 µM | SK-OV-3 22.9 µM | SF-539 22.6 µM | HOP-62 38 µM | SNB-19 31 µM | HCT-116 25.6 µM | UACC-62 18 µM | CCRF-CEM 16.5 µM | LOX IMVI 16.4 µM | NCI-H226 17.9 µM | CAKI-1 20.2 µM | U-251 15.2 µM | OVCAR-8 27.1 µM | RPMI-8226 14.3 µM | COLO 205 18.3 µM | Malme-3M 21.4 µM | SW-620 15.7 µM | MDA-N 11.4 µM | MDA-MB-231 22.5 µM | NCI-H23 28.1 µM | T47D 37.8 µM | SK-MEL-28 45 µM
17.7 µM: HCT-15

C[n+]1c2ccccc2c(C(=O)Nc2ccc(S(=O)(=O)Nc3ncccn3)cc2)c2ccccc21
> 100 µM: HCT-15
inactive: OVCAR-4 > 100 µM | IGROV-1 > 100 µM | BT-549 45.1 µM | HT-29 > 100 µM | OVCAR-3 > 100 µM | SK-MEL-2 > 100 µM | SF-268 > 100 µM | SK-MEL-5 58.9 µM | PC-3 57 µM | NCI-H460 > 100 µM | SF-295 > 100 µM | M14 > 100 µM | OVCAR-5 > 100 µM | MCF7 > 100 µM | K562 97.5 µM | SN12C > 100 µM | NCI/ADR-RES 32.5 µM | UO-31 75.5 µM | MOLT-4 25.8 µM | KM12 > 100 µM | SR > 100 µM | EKVX 80.7 µM | SNB-75 72.8 µM | A549 > 100 µM | Hs-578T > 100 µM | UACC-257 > 100 µM | HCC 2998 > 100 µM | 786-0 > 100 µM | MDA-MB-435 42.3 µM | ACHN > 100 µM | TK-10 > 100 µM | DU-145 > 100 µM | SK-OV-3 > 100 µM | SF-539 > 100 µM | HOP-62 > 100 µM | SNB-19 > 100 µM | HCT-116 72.6 µM | UACC-62 > 100 µM | LOX IMVI 79.3 µM | NCI-H226 37.4 µM | CAKI-1 > 100 µM | U-251 > 100 µM | OVCAR-8 > 100 µM | RPMI-8226 > 100 µM | COLO 205 > 100 µM | Malme-3M > 100 µM | SW-620 > 100 µM | MDA-N 47.4 µM | MDA-MB-231 71.9 µM | NCI-H23 > 100 µM | T47D > 100 µM | SK-MEL-28 > 100 µM

O=C1c2ccccc2C2C1C(c1ccccc1)C1(Cc3ccccc3C1=O)C2c1ccccc1 (configuration not stated)
inactive: OVCAR-4 > 100 µM | IGROV-1 11.7 µM | BT-549 > 100 µM | HT-29 14.8 µM | RXF 393 > 100 µM | OVCAR-3 > 100 µM | SK-MEL-2 > 100 µM | SF-268 > 100 µM | SK-MEL-5 > 55.8 µM | PC-3 12.5 µM | NCI-H460 > 67 µM | SF-295 > 29.6 µM | M14 > 100 µM | OVCAR-5 > 100 µM | MCF7 > 31.7 µM | K562 5.53 µM | NCI-H522 20.5 µM | SN12C > 100 µM | NCI/ADR-RES > 100 µM | UO-31 > 29.8 µM | MOLT-4 3.58 µM | KM12 > 100 µM | SR 7.57 µM | EKVX > 100 µM | SNB-75 30.4 µM | A549 > 100 µM | Hs-578T > 100 µM | UACC-257 > 100 µM | HCC 2998 > 46.8 µM | 786-0 > 100 µM | MDA-MB-435 > 73.6 µM | ACHN > 100 µM | TK-10 > 100 µM | HOP-92 > 100 µM | DU-145 > 100 µM | HL-60 3.67 µM | SK-OV-3 > 100 µM | SF-539 > 100 µM | HOP-62 > 100 µM | SNB-19 > 100 µM | HCT-116 2.2 µM | UACC-62 10.1 µM | CCRF-CEM 4.85 µM | LOX IMVI 21.6 µM | NCI-H226 > 100 µM | U-251 > 100 µM | OVCAR-8 > 100 µM | COLO 205 > 100 µM | Malme-3M > 100 µM | SW-620 > 100 µM | MDA-N 4.28 µM | MDA-MB-231 4.72 µM | NCI-H23 > 100 µM | T47D 11.4 µM | SK-MEL-28 > 100 µM
> 100 µM: HCT-15
